Assay results: US9611262B2, “Substituted 2-azabicycles and their use as orexin receptor modulators” (JANSSEN PHARMACEUTICA NV, priority 2014, dated 2017)
pKi: −log10 of the molar value.

Key:
human orexin 2 receptor = human orexin 2 receptor (Homo sapiens (Human), UniProt O43614); experiment: Human orexin 2 receptor radioligand binding ([3H]-EMPA competition); settings: HEK293 stably expressing human orexin 2 receptor; 2 nM [3H]-EMPA; averages of 2-20 runs; read-out: hOX2 Ki
How it was run: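 Membranes-free whole HEK293 cells stably expressing human OX2 receptor incubated with [3H]-EMPA and compound (7 concentrations, 0.1 nM–10 μM, ≤0.1% DMSO) for 60 min at room temperature; nonspecific binding with 10 μM almorexant. Filtration and scintillation counting; one-site IC50 converted to Ki using predetermined Kd, triplicates averaged over 2-20 runs.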

human orexin 1 receptor = human orexin 1 receptor (Homo sapiens (Human), UniProt O43613); experiment: Human orexin 1 receptor radioligand binding (competitive); settings: CHO cells stably expressing human orexin 1 receptor; 4 nM radioligand; averages of 2-20 runs; read-out: hOX1 Ki
How it was run: (§1)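 Competition binding used HEK293 cells expressing rat OX1 or CHO cells expressing human OX1, with 4 nM final [3H]-labelled thiazolyl-oxadiazolyl-pyrrolidinyl methanone radioligand in PBS. Compounds were tested at 7 concentrations (0.1 nM–10 μM) for 60 min at room temperature, then filtered; 10 μM almorexant defined nonspecific binding. Ki was derived from the one-site IC50 and the radioligand Kd.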

rat orexin 1 receptor = rat orexin 1 receptor (Rattus norvegicus, UniProt P56718); experiment: Rat orexin 1 receptor radioligand binding (competitive); settings: HEK293 cells stably expressing rat orexin 1 receptor; 4 nM radioligand; averages of 2-20 runs; read-out: rOX1 Ki
How it was run: as §1

Sequence of human orexin 2 receptor (O43614 whole entry): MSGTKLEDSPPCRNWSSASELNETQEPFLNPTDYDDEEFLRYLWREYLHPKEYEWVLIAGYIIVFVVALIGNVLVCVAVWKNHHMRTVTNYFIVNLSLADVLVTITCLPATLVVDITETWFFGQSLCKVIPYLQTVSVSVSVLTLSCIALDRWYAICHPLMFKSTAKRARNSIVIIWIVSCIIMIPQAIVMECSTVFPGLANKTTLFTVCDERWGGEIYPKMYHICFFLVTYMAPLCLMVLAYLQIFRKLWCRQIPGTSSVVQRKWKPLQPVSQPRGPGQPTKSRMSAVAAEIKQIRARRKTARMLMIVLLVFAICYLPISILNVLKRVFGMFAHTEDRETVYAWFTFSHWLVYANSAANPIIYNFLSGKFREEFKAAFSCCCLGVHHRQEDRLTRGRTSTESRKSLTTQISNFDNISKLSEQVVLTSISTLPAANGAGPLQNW
Sequence of human orexin 1 receptor (O43613 whole entry): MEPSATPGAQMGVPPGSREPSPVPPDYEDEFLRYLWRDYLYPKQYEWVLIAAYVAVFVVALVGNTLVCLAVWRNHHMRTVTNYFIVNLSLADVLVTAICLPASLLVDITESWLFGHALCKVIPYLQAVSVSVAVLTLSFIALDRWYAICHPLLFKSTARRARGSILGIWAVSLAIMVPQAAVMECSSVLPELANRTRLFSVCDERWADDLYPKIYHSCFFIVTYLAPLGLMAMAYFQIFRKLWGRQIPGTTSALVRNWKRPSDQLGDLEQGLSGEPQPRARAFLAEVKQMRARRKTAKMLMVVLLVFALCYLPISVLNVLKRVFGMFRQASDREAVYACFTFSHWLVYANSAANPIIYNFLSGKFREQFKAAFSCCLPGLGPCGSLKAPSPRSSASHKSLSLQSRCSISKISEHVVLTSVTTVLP

pKi (human orexin 2 receptor)	pKi (human orexin 1 receptor)	pKi (rat orexin 1 receptor)	SMILES
< 5.00	6.82	7.17	C[C@@H]1[C@H]2C[C@@H](Oc3cnc(C(F)(F)F)cn3)[C@H](C2)N1C(=O)c1ncccc1-n1nccn1 (relative stereo) [Example 47, (3-(2H-1,2,3-triazol-2-yl)pyridin-2-yl)((1S*,3R*,4R*,6R*)-3-methyl-6-((5-(trifluoromethyl)pyrazin-2-yl)oxy)-2-azabicyclo[2.2.1]heptan-2-yl)methanone]
5.47	7.74	7.59	C[C@@H]1[C@H]2C[C@@H](Oc3cnc(C(F)(F)F)cn3)[C@H](C2)N1C(=O)c1cc(F)ccc1-n1nccn1 (relative stereo) [Example 54, (5-fluoro-2-(2H-1,2,3-triazol-2-yl)phenyl)((1S*,3R*,4R*,6R*)-3-methyl-6-((5-(trifluoromethyl)pyrazin-2-yl)oxy)-2-azabicyclo[2.2.1]heptan-2-yl)methanone]
6.44	8.40	8.30	C[C@@H]1[C@H]2C[C@@H](Nc3ccc(C(F)(F)F)cn3)[C@H](C2)N1C(=O)c1ncccc1-c1ncccn1 (relative stereo) [Example 62, ((1S*,3R*,4S*,6R*)-3-methyl-6-((5-(trifluoromethyl)pyridin-2-yl)amino)-2-azabicyclo[2.2.1]heptan-2-yl)(3-(pyrimidin-2-yl)pyridin-2-yl)methanone]
6.96	7.38	7.39	Cc1ccc(-n2nccn2)c(C(=O)N2[C@H](C)[C@H]3C[C@@H](Oc4cnc5cc(F)c(F)cc5n4)[C@@H]2C3)n1 (relative stereo) [Example 189, ((1S*,3R*,4R*,6R*)-6-((6,7-difluoroquinoxalin-2-yl)oxy)-3-methyl-2-azabicyclo[2.2.1]heptan-2-yl)(6-methyl-3-(2H-1,2,3-triazol-2-yl)pyridin-2-yl)methanone]
5.42	7.46	7.32	Cc1ccc(-c2ncccn2)c(C(=O)N2[C@H](CF)[C@@H]3CC[C@H]2[C@H](Oc2ccc(C(F)(F)F)cn2)C3)n1 [Example 74, ((1S,3S,4R,6R)-3-(fluoromethyl)-6-((5-(trifluoromethyl)pyridin-2-yl)oxy)-2-azabicyclo[2.2.2]octan-2-yl)(6-methyl-3-(pyrimidin-2-yl)pyridin-2-yl)methanone]
< 5.00	7.18	7.04	O=C(c1ccccc1-c1ncccn1)N1[C@H](CF)[C@@H]2CC[C@H]1[C@H](Oc1ccc(C(F)(F)F)cn1)C2 [Example 75, ((1S,3S,4R,6R)-3-(fluoromethyl)-6-((5-(trifluoromethyl)pyridin-2-yl)oxy)-2-azabicyclo[2.2.2]octan-2-yl)(2-(pyrimidin-2-yl)phenyl)methanone]
< 5.00	6.99	6.91	O=C(c1cc(F)ccc1-n1nccn1)N1[C@H](CF)[C@@H]2CC[C@H]1[C@H](Oc1ccc(C(F)(F)F)cn1)C2 [Example 78, (5-fluoro-2-(2H-1,2,3-triazol-2-yl)phenyl)((1S,3S,4R,6R)-3-(fluoromethyl)-6-((5-(trifluoromethyl)pyridin-2-yl)oxy)-2-azabicyclo[2.2.2]octan-2-yl)methanone]

Further lines, the compound ahead of its results:

SMILES	pKi (human orexin 2 receptor)	pKi (human orexin 1 receptor)	pKi (rat orexin 1 receptor)
Cc1cnc(-n2nccn2)c(C(=O)N2[C@H](C)[C@H]3C[C@@H](Oc4cnc(C(F)(F)F)cn4)[C@@H]2C3)c1 (relative stereo) [Example 50, (5-methyl-2-(2H-1,2,3-triazol-2-yl)pyridin-3-yl)((1S*,3R*,4R*,6R*)-3-methyl-6-((5-(trifluoromethyl)pyrazin-2-yl)oxy)-2-azabicyclo[2.2.1]heptan-2-yl)methanone]	< 5.00	7.52	7.64
C[C@@H]1[C@H]2C[C@@H](Oc3cnc(C(F)(F)F)cn3)[C@H](C2)N1C(=O)c1cccc(F)c1-n1nccn1 (relative stereo) [Example 52, (3-fluoro-2-(2H-1,2,3-triazol-2-yl)phenyl)((1S*,3R*,4R*,6R*)-3-methyl-6-((5-(trifluoromethyl)pyrazin-2-yl)oxy)-2-azabicyclo[2.2.1]heptan-2-yl)methanone]	5.59	7.85	7.74
COc1ccc(C(=O)N2[C@H](C)[C@H]3C[C@@H](Oc4cnc(C(F)(F)F)cn4)[C@@H]2C3)c(-n2nccn2)c1 (relative stereo) [Example 57, (4-methoxy-2-(2H-1,2,3-triazol-2-yl)phenyl)((1S*,3R*,4R*,6R*)-3-methyl-6-((5-(trifluoromethyl)pyrazin-2-yl)oxy)-2-azabicyclo[2.2.1]heptan-2-yl)methanone]	< 5.00	8.00	7.82
Cc1ccc(-n2nccn2)c(C(=O)N2[C@H](C)[C@H]3C[C@@H](Nc4ccc(C(F)(F)F)cn4)[C@@H]2C3)n1 (relative stereo) [Example 63, (6-methyl-3-(2H-1,2,3-triazol-2-yl)pyridin-2-yl)((1S*,3R*,4S*,6R*)-3-methyl-6-((5-(trifluoromethyl)pyridin-2-yl)amino)-2-azabicyclo[2.2.1]heptan-2-yl)methanone]	7.11	8.40	8.52
Cc1ccc(-n2nccn2)c(C(=O)N2[C@H](C)[C@H]3C[C@@H](Oc4cnc5cc(F)ccc5n4)[C@@H]2C3)n1 (relative stereo) [Example 186, ((1S*,3R*,4R*,6R*)-6-((6-fluoroquinoxalin-2-yl)oxy)-3-methyl-2-azabicyclo[2.2.1]heptan-2-yl)(6-methyl-3-(2H-1,2,3-triazol-2-yl)pyridin-2-yl)methanone]	6.90	7.92	7.74
C[C@@H]1[C@H]2C[C@@H](Oc3cnc4cc(F)ccc4n3)[C@H](C2)N1C(=O)c1cccc(F)c1-n1nccn1 (relative stereo) [Example 187, (3-fluoro-2-(2H-1,2,3-triazol-2-yl)phenyl)((1S*,3R*,4R*,6R*)-6-((6-fluoroquinoxalin-2-yl)oxy)-3-methyl-2-azabicyclo[2.2.1]heptan-2-yl)methanone]	6.87	8.22	8.15
C[C@@H]1[C@H]2C[C@@H](Oc3cnc4cc(F)ccc4n3)[C@H](C2)N1C(=O)c1ccccc1-n1nccn1 (relative stereo) [Example 188, (2-(2H-1,2,3-triazol-2-yl)phenyl)((1S*,3R*,4R*,6R*)-6-((6-fluoroquinoxalin-2-yl)oxy)-3-methyl-2-azabicyclo[2.2.1]heptan-2-yl)methanone]	6.97	8.15	8.22
CC1C2CC(Oc3ccc(C(F)(F)F)cn3)C(C2)N1C(=O)c1cccc(F)c1-c1ncccn1 (single isomer, unassigned) [Example 1, (R/S)-(3-fluoro-2-(pyrimidin-2-yl)phenyl)(3-methyl-6-((5-(trifluoromethyl)pyridin-2-yl)oxy)-2-azabicyclo[2.2.1]heptan-2-yl)methanone]	5.28	7.08	7.62
CC1C2CC(Oc3ccc(C(F)(F)F)cn3)C(C2)N1C(=O)c1cccc(F)c1-c1ncccn1 (single isomer, unassigned) [Example 8, (R/S)-(3-fluoro-2-(pyrimidin-2-yl)phenyl)(3-methyl-6-((5-(trifluoromethyl)pyridin-2-yl)oxy)-2-azabicyclo[2.2.1]heptan-2-yl)methanone]	5.96	7.80	7.96
Cc1ccc(-c2ncccn2)c(C(=O)N2[C@H](C)[C@H]3C[C@@H](Nc4ccc(C(F)(F)F)cn4)[C@@H]2C3)n1 [Example 60, (6-methyl-3-(pyrimidin-2-yl)pyridin-2-yl)((1S,3R,4S,6R)-3-methyl-6-((5-(trifluoromethyl)pyridin-2-yl)amino)-2-azabicyclo[2.2.1]heptan-2-yl)methanone]	6.46	7.72	7.80
O=C(c1cc(F)ccc1-c1ncccn1)N1[C@H](CF)[C@@H]2CC[C@H]1[C@H](Oc1ccc(C(F)(F)F)cn1)C2 [Example 76, (5-fluoro-2-(pyrimidin-2-yl)phenyl)((1S,3S,4R,6R)-3-(fluoromethyl)-6-((5-(trifluoromethyl)pyridin-2-yl)oxy)-2-azabicyclo[2.2.2]octan-2-yl)methanone]	< 5.00	7.34	7.44
Cc1ccc(-n2nccn2)c(C(=O)N2[C@H](CF)[C@@H]3CC[C@H]2[C@H](Oc2ccc(C(F)(F)F)cn2)C3)n1 [Example 77, ((1S,3S,4R,6R)-3-(fluoromethyl)-6-((5-(trifluoromethyl)pyridin-2-yl)oxy)-2-azabicyclo[2.2.2]octan-2-yl)(6-methyl-3-(2H-1,2,3-triazol-2-yl)pyridin-2-yl)methanone]	5.32	7.70	7.89
O=C(c1cccc(F)c1-c1ncccn1)N1[C@H](CF)[C@@H]2CC[C@H]1[C@H](Oc1ccc(C(F)(F)F)cn1)C2 [Example 79, (3-fluoro-2-(pyrimidin-2-yl)phenyl)((1S,3S,4R,6R)-3-(fluoromethyl)-6-((5-(trifluoromethyl)pyridin-2-yl)oxy)-2-azabicyclo[2.2.2]octan-2-yl)methanone]	< 5.00	7.34	7.31
